The source of these data is patent US20230033582A1, “POLYMERIC NANOPARTICLES FOR ENHANCED CANCER TREATMENT” (THE QUEEN'S UNIVERSITY OF BELFAST, priority 2019, published 2023).

One experiment relates to MC38 cells. The experiment is described as follows: Flow cytometry of SIINFEKL presentation on MHC I (SIINFEKL-bound MHC antibody) in MC38 cells. The settings on record: for presentation of NP-encapsulated OVA-derived SIINFEKL after pre-treatment: then OVA-NPs for 6 hours. It is filed as cell-based. As to the method:
FIG. 8: illustrate the results of Gemcitabine enhances SIINFEKL presentation: MC38 cells were pretreated with 30 nm Gemcitabine for 24 hours. Then, cells were treated with 1 μM SIINFEKL peptide for 6 hours. After 6 hours, cells were stained with PE-SIINFEKL-bound MHC antibody to determine the levels of SIINFEKL presentation. Presentation of SIINFEKL was enhanced after pre-treatment with Gemcitabine highlighting the potential of boosting CD8+ T cell recognition of tumour cells through combining the nanoformulation with Gemcitabine;
FIG. 9: illustrate the results of Gemcitabine enhances the presentation of Ovalbumin-derived SIINFEKL encapsulated within nanoparticles: MC38 cells were pre-treated with 7.5, 15 and 30 nm Gemcitabine for 24 hours. Then, the cells were treated with OVA-NPs for 6 hours. After 6 hours, cells were stained with PE-SIINFEKL-Bound MHC antibody and an isotype control antibody to determine levels of OVA-derived SIINFEKL presentation. NP-encapsulated OVA-derived SIINFEKL was seen to be enhanced after pre-treatment with Gemcitabine;
FIG. 10: illustrate the results of Epigenetic modifying agents (EMAs) enhance the presentation of Ovalbumin-derived SIINFEKL encapsulated within nanoparticles: MC38 cells were pre-treated with Entinostat and Decitabine. After 24 hours, cells were treated with OVA-NPs (250 μg/mL) for 6 hours. Cells were stained with SIINFEKL-bound MHC antibody and the surface presentation of SIINFEKL was determined by flow cytometry. Both agents in combination enhanced SIINFEKL presentation;
FIG. 11: illustrate the results of Lysosome disruptive agent L-leucyl-L-leucine methyl ester (LLOME) enhances the presentation of Ovalbumin-derived SIINFEKL encapsulated within nanoparticles: MC38 cells were pre-treated with LLOME for 24 hours. Then, the cells were treated with OVA-NPs for 6 hours. After 6 hours, cells were stained with PE-SIINFEKL-bound MHC antibody and an isotype control antibody to determine levels of OVA-derived SIINFEKL presentation. NP-encapsulated OVA-derived SIINFEKL was seen to be enhanced after pre-treatment with LLOME;
FIG. 12: illustrate the results of the anti-malarial Mefloquine enhances the presentation of Ovalbumin-derived SIINFEKL encapsulated within nanoparticles: MC38 cells were pre-treated with Mefloquine for 24 hours. Then, the cells were treated with OVA-NPs for 6 hours. After 6 hours, cells were stained with PE-SIINFEKL-bound MHC antibody and an isotype control antibody to determine levels of OVA-derived SIINFEKL presentation. NP-encapsulated OVA-derived SIINFEKL was seen to be enhanced after pre-treatment with Mefloquine.
MC38 cells were seeded at 5×10^4 in 6 well plates and left overnight to adhere in 2 mL of the appropriate growth medium. Following this, the cells were treated with 250 μg/mL of either acid terminated poly(lactic-co-glycolic acid) (PLGA) nanoparticles (NPs) or PLGA NPs encapsulating the SIINFEKL peptide (for cells treated at 4 degrees C., cells were maintained at 4° C. for 45 minutes prior to treatment). Following treatment, the cells were washed 3 times with sterile PBS (4° C. treatment group were washed on ice) and the cells incubated for a following 6 hours at 37° C. The surface expression of SIINFEKL was determined by flow cytometry.
MC38 cells were seeded at 5×10^4 in 6 well plates and left overnight to adhere in 2 mL of the appropriate growth medium. Following this, the cells were treated with 250 μg/mL of either acid terminated poly(lactic-co-glycolic acid) (PLGA) nanoparticles (NPs) or PLGA NPs encapsulating the Ovalbumin protein. Free, pre-processed SIINFEKL was used as a positive control. Cells were incubated for 24 hours at 37° C. Following this, the cells were collected and incubated with a PE-conjugated antibody specific for MHC-I bound to the SIINFEKL peptide (Biolegend, USA). Next, presentation of the SIINFEKL peptide was assessed by flow cytometry. […]

Experiment [1] concerns the target SIINFEKL bound to MHC class I on the cell surface (UniProt P01901). The experiment can be described thus: flow cytometry, JAWS II cells treated with free SIINFEKL
The next experiment concerns JAWS II cells. The experiment can be described thus: Flow cytometry of SIINFEKL presentation on MHC I (SIINFEKL-bound MHC antibody) in JAWS II dendritic cell line. It is filed as cell-based. The settings on record: FIG. 5, free SIINFEKL positive control, 6 hours. As to the method:
FIG. 5: illustrate the results of Nanoparticle encapsulated SIINFEKL is presented on MHC I in the JAWS II dendritic cell line: JAWS II cells were seeded in 6 well plates at 1×10^5 and left overnight. The following day, cells were treated with either 500 μg of PLGA-SIINFEKL NP (SIINFEKL NP), PLGA NP (B-NP) or free SIINFEKL (Positive control). The cells were incubated at 37° C. in 5% CO2 for 6 hours. After incubation, an antibody specific for SIINFEKL bound to MHC I was used to detect cell surface expression of the antigen. Assessment was undertaken using flow cytometry. An Isotype specific IgG control (SIINFEKL IgG) was used to detect non-specific binding of the antibody. […] Diagram is a representative figure from 3 independent experiments;
FIG. 6: illustrate the results of Presentation of nanoparticle-encapsulated SIINFEKL is dependent on endocytosis: (A) JAWS II cells and (B) MC38 cells ells were treated with either 250 μg/mL blank nanoparticles (B-NP), 250 μg/mL nanoparticles encapsulating the SIINFEKL peptide (SIINFEKL-NP) or 1 μM free SIINFEKL (positive control) for 1 hour at either 4° C. or 37° C. Cells were washed to remove non-endocytosed nanoparticles or free peptide and were incubated at 37° C. Cells were stained with SIINFEKL-bound MHC antibody and SIINFEKL presentation was determined by flow cytometry. […]

Where [2] appears, read: FIG. 11 and 12, MC38 cells pre-treated for 24 hours.

`Nc1ccccc1NC(=O)c1ccc(CNC(=O)OCc2cccnc2)cc1` [Entinostat]: the “SIINFEKL presentation after pre-treatment, both agents in combination” value in the experiment on MC38 cells (FIG. 10, MC38 cells pre-treated with Entinostat and Decitabine 24 hours, then OVA-NPs (250 μg/mL) for 6 hours) is given as “enhanced”.

On to `Nc1ccn([C@@H]2O[C@H](CO)[C@@H](O)C2(F)F)c(=O)n1` [Gemcitabine], for which, in the experiment with MC38 cells (FIG. 8, MC38 cells pretreated with 30 nm Gemcitabine for 24 hours, then 1 μM SIINFEKL peptide for 6 hours), the “Presentation of SIINFEKL after pre-treatment” value was “enhanced”. Besides, in the experiment with MC38 cells (FIG. 9, MC38 cells pre-treated with 7.5, 15 and 30 nm Gemcitabine for 24 hours), the “presentation of NP-encapsulated OVA-derived SIINFEKL after pre-treatment” value is “enhanced”. Consider `COC(=O)[C@H](CC(C)C)NC(=O)[C@@H](N)CC(C)C` [LLOME, L-leucyl-L-leucine methyl ester], for which the “presentation of NP-encapsulated OVA-derived SIINFEKL after pre-treatment” value with MC38 cells (setting [2]) was “enhanced”. For the molecule `OC(c1cc(C(F)(F)F)nc2c(C(F)(F)F)cccc12)C1CCCCN1` (centres unmarked) [Mefloquine], the “presentation of NP-encapsulated OVA-derived SIINFEKL after pre-treatment” value in the experiment with MC38 cells (setting [2]) is recorded as “enhanced”. “PE-conjugated antibody specific for MHC-I bound to the SIINFEKL peptide (Biolegend, USA)”: the positive cells in experiment [1] came to 100%. Consider “SIINFEKL (Model Peptide) [SIINFEKL peptide, positive control]”, for which the “SIINFEKL on the cell surface (fluorescent signal, geomean)” value in the experiment on MC38 cells (FIG. 3, MC38 cells, 1 μM SIINFEKL peptide for 4 hours) was “high levels SIINFEKL on the surface”. Further, the “cells positive for SIINFEKL-MHC I antibody staining” value in the experiment on JAWS II cells is listed as ~100%.
